Where a name gives a salt, the structure may show the parent alone.
What was measured:
[1] = RP, Waters ACQUITY UPLC BEH C18, 100 × 2.1 mm, 1.7 µm; A: water + 0.1% formic acid, pH 3; B: 80% acetonitrile + 20% acetone + 0.1% formic acid, pH 3; gradient (min/%B) 0/0 6/100; conditions: stereoisomer not certain
[2] = RP, Waters ACQUITY UPLC HSS T3, 100 × 2.1 mm, 1.8 µm; A: water + 0.1% formic acid, pH 3; B: 30% methanol + 70% acetonitrile + 0.1% formic acid, pH 3; gradient (min/%B) 0.0/5 1.0/8 2.0/15 3.0/40 4.0/70 4.5/100 5.0/100 6.4/100 6.6/5.0 6.8/5.0 7.0/5.0; conditions: stereoisomer not certain

Structure (SMILES)	LC retention time [1]	LC retention time [2]
CC1NC(=NCCCC(N)C(=O)O)NC1=O (stereo not drawn)	0.585 min	0.484 min
O=C(O)C(O)Cc1c[nH]c2ccccc12 (racemic) [dl-3-indolelactic acid]	2.13 min	3.52 min
CN1C(=O)CCC1c1cccnc1 (single isomer, unassigned; (-)) [(-)-Cotinine]	1.26 min	0.793 min
Cn1c(=O)[nH]c2ncn(C)c2c1=O [1,7-dimethylxanthine]	1.45 min	2.56 min
Cn1cnc(C[C@H](N)C(=O)O)c1 [1-Methyl-L-Histidine]	0.531 min	0.425 min
Cn1c(=O)[nH]c2[nH]c(=O)[nH]c2c1=O [1-methyluric acid]	1.28 min	1.27 min
Nc1ccn(C2OC(CO)C(O)C2O)c(=S)n1 (stereo not drawn) [2-thiocytidine dihydrate]	0.986 min	0.619 min
O=Cc1ccc(O)cc1 [4-hydroxybenzaldehyde]	1.91 min	3.3 min
Cc1cn(C2OC(CO)C(O)C2O)c(=O)nc1N (stereo not drawn) [5-methylcytidine]	1.28 min	1.18 min
COc1cc2c(CCNC(C)=O)c[nH]c2cc1O [6-hydroxymelatonin]	1.81 min	3.4 min
Cn1c[n+](C2OC(CO)C(O)C2O)c2nc(N)[nH]c(=O)c21 (stereo not drawn) [7-methylguanosine]	1.17 min	0.688 min
Nc1ncnc2nc[nH]c12 [Adenine]	0.685 min	0.538 min
Nc1ncnc2c1ncn2C1OC(CO)C(O)C1O (stereo not drawn) [Adenosine]	1.34 min	0.857 min
O=C(O)CCCCCCCC(=O)O [Azelaic acid]	2.26 min	3.63 min
CC(CCC(=O)O)C1CCC2C3C(O)CC4CC(O)CCC4(C)C3CC(O)C12C (stereo not drawn) [Cholic acid]	3.4 min	4.46 min
CN1CC(=O)NC1=N [Creatinine]	0.572 min	0.467 min
CN(C)CC(=O)O [N,N-dimethylglycine]	0.572 min	0.47 min
O=C(O)Cc1ccccc1 [Phenylacetic acid]	1.19 min	0.861 min

Structure (SMILES)	LC retention time [1]	LC retention time [2]
O=C(O)CCCCCC(=O)O [Pimelic acid]	1.72 min	3.17 min
NCCS(=O)(=O)O [Taurine]	0.556 min	0.47 min
OCC(O)C(O)C(O)C(O)CO (stereo not drawn) [d(-)-mannitol]	–	0.483 min
O=C(O)C(O)c1ccc(O)c(O)c1 (stereo not drawn) [dihydroxymandelic acid]	–	0.829 min
CC(CCC(=O)NCC(=O)O)C1CCC2C3C(O)CC4CC(OC5OC(C(=O)O)C(O)C(O)C5O)CCC4(C)C3CCC12C (stereo not drawn) [glycochenodeoxycholic acid 3-glucuronide]	–	4.34 min
O=C(O)C1OC(Oc2ccc(O)cc2)C(O)C(O)C1O (stereo not drawn) [hydroquinone-glucuronide]	–	0.91 min
CS(=O)CCCN=C=S (stereo not drawn) [iberin]	–	3.24 min
CC(C)CC(=O)NCC(=O)O [isovalerylglycine]	–	2.74 min
c1coc(CNc2ncnc3nc[nH]c23)c1 [kinetin]	–	3.03 min
O=c1cc(-c2ccc(O)c(O)c2)oc2cc(O)cc(O)c12 [luteolin]	–	3.75 min
C[NH+]1CC(O)CC1C(=O)[O-] (stereo not drawn) [n-methyl-4-hydroxyproline]	–	0.498 min
CCCCCCCCC=CCCCCCCCC(N)=O [oleamide]	–	4.81 min
CCC=CCC=CCC=CCC=CCC=CCC=CCCC(=O)OC(COC(=O)CCCCCCCCCCCCCCCCC)COP(=O)([O-])OCC[N+](C)(C)C (stereo not drawn) [pc(18:0/22:6)]	–	5.51 min
O=C(O)c1ccc[nH]1 [pyrrole-2-carboxylic acid]	–	2.61 min
CC12CCC(=O)C=C1CCC1C2CCC2(C)C(O)CCC12 (stereo not drawn) [testosterone]	–	4.32 min
O=C(O)/C=C/c1cccc(O)c1 [trans-3-hydroxycinnamic acid]	–	3.53 min
CC(C)C(N)C(=O)O (stereo not drawn) [valine]	–	0.546 min

Other lines, results leading:

LC retention time [1]	LC retention time [2]	Structure (SMILES)
1.16 min	0.743 min	O=c1[nH]cc(C2OC(CO)C(O)C2O)c(=O)[nH]1 (stereo not drawn)
0.561 min	0.459 min	NC(CCCNC1=NCC(=O)N1)C(=O)O (stereo not drawn)
1.03 min	0.786 min	Nc1c(O)cccc1C(=O)CC(N)C(=O)O (racemic) [3-hydroxy-dl-kynurenine]
0.657 min	0.51 min	NC(CCCC(=O)O)C(=O)O (racemic) [dl-2-aminoadipic acid]
1.3 min	1.63 min	Cn1cnc2c(ncn2C2OC(CO)C(O)C2O)c1=N (stereo not drawn) [1-methyladenosine]
0.543 min	0.44 min	NC(CCCC(N)C(=O)O)C(=O)O (stereo not drawn) [2,6-diaminopimelic acid]
1.44 min	1.63 min	CC(C)(O)CC(=O)O [3-hydroxy-3-methyl butanoic acid]
0.986 min	0.619 min	Cn1c(=N)ccn(C2OC(CO)C(O)C2O)c1=O (stereo not drawn) [3-methylcytidine methosulfate]
1.28 min	1.45 min	Cn1c(=O)[nH]c(=O)c2[nH]cnc21 [3-methylxanthine]
1.71 min	3.23 min	CC(=O)Nc1ccc(C(=O)O)cc1 [4-acetamidobenzoic acid]
1.54 min	2.66 min	O=C(O)C(O)Cc1ccc(O)cc1 (stereo not drawn) [(DL)-p-hydroxyphenyllactic acid]
1.5 min	2.33 min	O=C(O)CCCCC(=O)O [Adipic acid]
0.571 min	0.459 min	CC(NCCCCC(N)C(=O)O)C(=O)O (stereo not drawn) [CEL]
1.65 min	3.13 min	Cn1c(=O)c2c(ncn2C)n(C)c1=O [Caffeine]
0.785 min	0.659 min	O=C(O)CC(O)(CC(=O)O)C(=O)O [Citric acid]
0.575 min	0.47 min	NC(=O)NCCCC(N)C(=O)O (stereo not drawn) [Citrulline]
2.61 min	3.84 min	CC12CCC(=O)C=C1CCC1C2C(=O)CC2(C)C1CCC2(O)C(=O)CO (stereo not drawn) [Cortisone]
1.37 min	1.54 min	CC(O)C1NC(=O)C2CCCN2C1=O (stereo not drawn) [Cyclic(pro-thr)]
3.94 min	4.62 min	CC(CCC(=O)O)C1CCC2C3CCC4CC(O)CCC4(C)C3CC(O)C12C (stereo not drawn) [Deoxycholic acid]
0.676 min	0.527 min	NC(CCCCNC(=O)CO)C(=O)O (stereo not drawn) [GALA ((2s)-2-amino-6-(2-hydroxy-acetylamino)-hexanoic acid)]
1.37 min	1.32 min	O=C(O)CCCC(=O)O [Glutaric acid]
1.77 min	3.1 min	O=C(O)CNC(=O)c1ccccc1 [Hippuric acid]
1.27 min	0.539 min	CC(C(=O)O)C(=O)O [Methylmalonic acid]

LC retention time [1]	LC retention time [2]	Structure (SMILES)
1.38 min	1.19 min	CC1(O)CCOC(=O)C1 (stereo not drawn) [Mevalonolactone]
2.58 min	3.79 min	CSCCC(NC(=O)Cc1ccccc1)C(=O)O (stereo not drawn) [N-phenylacetyl-methionine]
0.626 min	0.506 min	O=C(O)C1CCCN1 (stereo not drawn) [Proline]
0.836 min	0.731 min	O=C1CCC(C(=O)O)N1 (stereo not drawn) [Pyroglutamic acid]
1.68 min	3.38 min	Cc1cc2nc3c(=O)[nH]c(=O)nc-3n(CC(O)C(O)C(O)CO)c2cc1C (stereo not drawn) [Riboflavin]
–	4.08 min	CCCc1oc(CCC(=O)O)c(C(=O)O)c1C [cmpf]
–	3.1 min	CC(C)C1NC(=O)C2CCCN2C1=O (stereo not drawn) [cyclo-(pro-val)]
–	0.712 min	NCCc1ccc(O)c(O)c1 [dopamine]
–	0.564 min	CNCC(O)c1ccc(O)c(O)c1 (stereo not drawn) [epinephrine]
–	0.491 min	NCCCC(=O)O [gamma-aminobutyric acid]
–	3.46 min	O=C(Cc1c[nH]c2ccccc12)OC1OC(C(=O)O)C(O)C(O)C1O (stereo not drawn) [indole-3-acetic acid-glucuronide]
–	3.56 min	O=C(O)CNC(=O)C=Cc1c[nH]c2ccccc12 [indole-3-acryloylglycine]
–	3.42 min	O=C(OC1OC(C(=O)O)C(O)C(O)C1O)c1c[nH]c2ccccc12 (stereo not drawn) [indole-3-carboxylic acid glucuronide]
–	3.81 min	CC12C=Cc3occc3C1CCC13CC(CCC12)C(O)(CO)C3 (stereo not drawn) [kahweol]
–	0.457 min	C[N+](C)(C)CC(O)CC(=O)[O-] (stereo not drawn) [l-carnitine inner salt]
–	3.92 min	CCCCCCCC(=O)OC1OC(C(=O)O)C(O)C(O)C1O (stereo not drawn) [octanoic acid glucuronide]
–	3.81 min	C=C(C)C1CC=C(C(=O)O)CC1 (stereo not drawn) [perillic acid]
–	3.38 min	O=C(O)CNC(=O)Cc1ccccc1 [phenylacetylamino-acetic acid]
–	0.62 min	O=C(O)C1CCCCN1 (stereo not drawn) [pipecolinic acid]
–	0.543 min	C[N+]1(C)CCCC1C(=O)[O-] (stereo not drawn) [proline betaine]
–	3.74 min	O=c1c(O)c(-c2ccc(O)c(O)c2)oc2cc(O)cc(O)c12 [quercetin]
–	3.24 min	CC(=O)NC(CSC(=S)NCCCCS(C)=O)C(=O)O (stereo not drawn) [sulforaphane-n-acetylcysteine]

Reference: the RepoRT retention time repository (doi:10.1016/j.aca.2011.12.065)
